Measurements: patent publication US4769389A, “Oxygenated-alkyl derivatives of glutamic and aspartic acids with antagonistic activity to bio-active polypeptides and a method for their preparation” (priority 1985, dated 1988)
Converted amounts (≈) assume the structure as drawn. Read-outs that look alike come from different tables or passages of the source.

Columns and labels:
[1] = system: pancreatitis in mice induced experimentally by cerulein; assay: Pancreatitis induced by cerulein in mice; format: in vivo; conditions: for ED50: Mus musculus, ip, cerulein, mice
Description: Adult male mice received six injections of cerulein (Takus) (50 mcg/kg) each hour for six hours.
The compound was administered 30 minutes before each administration of cerulein. Nine hours after the beginning of the treatment, the blood was taken from the rectro-orbitory plexus after anaesthesia with ether, the animals were killed and the pancreas removed and weighed.

guinea pig gall bladders = assay: Anti-CCK-8 activity on guinea-pig gallbladders in situ (in vivo); conditions: Cavia porcellus, iv; CCK-8 10 ng/kg i.v.; compound i.v.; read-out: ID50, anti-CCK-8 activity in situ
Description: In order to confirm the evidence of the studies in vitro, several of the more interesting compounds were tested in vivo with the use of guinea-pig gallbladders in situ.
The method used was that described by Ljungberg (Svensk. Farm. Tidskr. 69, 351-354, 1964).
Guinea-pigs having a weight of about 400 g anaesthetised with urethane were used; the substances being tested were administered intravenously (i.v.) into the jugular vein.
The responses of the gallbladder to the substances being tested were detected by means of a force transducer and recorded by means of a microdynamometer. 10 ng/kg of CCK 8 were chosen as the optimum contracting dose. The antagonistic compounds tested were administered in increasing doses so as to enable the calculation of an ID50 value, that is the dose (in mg/kg i.v.) having a 50% inhibiting effect against contractions induced by 10 ng/kg i.v. of CCK-8.

digestive tract = assay: Antispastic activity, vegetable carbon test (speed of transit through stomach and intestine) in mice; format: in vivo; conditions: Mus musculus, ip, read-out: A[…] ED50 (dose which reduces the intestinal transit time of the carbon by 50%), intraperitoneally
From the text: The anti-spastic activity which the present compounds exert on the whole of the digestive tract is also considerable. Measured in mice with the vegetable carbon test (speed of transit through the stomach and intestine) this activity is illustrated in the following table: […]

in vivo = conditions: mouse, iv
colon of rabbits = assay: Antispastic activity in the colon of rabbits stimulated with CCK-8; format: in vivo, rabbit; set-up: Antispastic activity in colon, EXPERIMENT 1 / Antispastic activity in colon, EXPERIMENT 2: unit not given here; conditions: CCK 100 ng/kg
Description: The abdomen of anaesthetised rabbit is cut open to display the tranverse colon. A small balloon full of water is inserted at an established point and connected to a pressure transducer by means of a polyethylene cannula filled with H2 O.
The optimum sensitivity being fixed in relation to the physiological contractions, the products were administered through the femeral vein. Contractions were induced by the administration of 100 ng/kg of CCK.

[2] = system: pancreatitis in rats induced experimentally by taurocholate; assay: Pancreatitis induced by sodium taurocolate in rats; format: in vivo; conditions: for ED50: Rattus norvegicus, ip, taurocholate, rats
Description: The products under examination were administered intraperitoneally (i.p.) 30 minutes before the operation and 3 hours after the operation. Six hours after the laparatomy the blood was removed from the retro-orbitory plexus after anaesthesia with ether, the animals were killed and the pancreas was removed and weighed. The activity of the serum amylase was determined by the method described above.

guinea-pig gallbladder = assay: Anti-CCK activity on guinea-pig gallbladders in vitro (contraction by CCK-8); conditions: for IC50: Cavia porcellus, CCK-8 10 ng/ml, in vitro
Description: ANTI-CCK ACTIVITY ON GUINEA-PIG GALLBLADDERS IN VITRO A longitudinal strip of guinea-pig gallbladder is placed in a bath for isolated organs in Krebs at a temperature of 32° C. and oxygenated continuously with an oxygen-CO2 mixture (95-[…]). The isometric contractions were detected by means of a force transducer and recorded. […] The results obtained are shown in Table 3 which gives the compounds tested and the IC50 values found which were calculated by the method of regression in a test of at least three experiments for each compound studied.

## CCCCCN(CCOCC)C(=O)C(CCC(=O)O)NC(=O)c1ccc(Cl)c(Cl)c1 (centres unmarked) [Compound 2]
[1]; 5 mg/kg ip + cerulein
  AMYLASE IN THE SERUM: 54.7 U/ml
  INHIBITION OF WEIGHT INCREASE: 55.2%
  INHIBITION OF WEIGHT INCREASE (pancreas): 24.5%
  RATIO WEIGHT OF PANCREAS / ANIMAL WEIGHT: 0.54%
[1]; 7.5 mg/kg ip + cerulein
  AMYLASE IN THE SERUM: 21.7 U/ml
  INHIBITION OF WEIGHT INCREASE: 88.3%
  INHIBITION OF WEIGHT INCREASE (pancreas): 61.2%
  RATIO WEIGHT OF PANCREAS / ANIMAL WEIGHT: 0.45%
[1]; 10 mg/kg ip + cerulein
  AMYLASE IN THE SERUM: 11.8 U/ml
  INHIBITION OF WEIGHT INCREASE: 98.3%
  INHIBITION OF WEIGHT INCREASE (pancreas): 89.8%
  RATIO WEIGHT OF PANCREAS / ANIMAL WEIGHT: 0.38%
[1]; read-out: ED50 (inhibition of weight increase)
  ED50: 4.6 mg/kg
[1]; read-out: ED50, inhibition of weight increase of the pancreas
  ED50: 6.3 mg/kg
Guinea pig gall bladders
  ED50: 0.1 mg/kg
Digestive tract
  ED50: 14 mg/kg
In vivo
  LD50: 338 mg/kg
  selectivity ratio: 3380
Colon of rabbits; 0.3 mg/kg i.v.
  Antispastic activity in colon, EXPERIMENT 1: -9.8
  Antispastic activity in colon, EXPERIMENT 2: -27.2
Colon of rabbits; 1 mg/kg i.v.
  Antispastic activity in colon, EXPERIMENT 1: -45.1
  Antispastic activity in colon, EXPERIMENT 2: -39.8
Colon of rabbits; 3 mg/kg i.v.
  Antispastic activity in colon, EXPERIMENT 1: -88.0
  Antispastic activity in colon, EXPERIMENT 2: -92.4
Colon of rabbits; Oryctolagus cuniculus, iv
  ED50: 1.47 mg/kg
[2]; 5 mg/kg i.p. + taurocholate
  AMYLASE IN THE SERUM: 10.6 U/ml
  INHIBITION OF AMYLASE INCREASE: 28.2%
  INHIBITION OF WEIGHT INCREASE: 44.4%
  RATIO WEIGHT OF PANCREAS / ANIMAL WEIGHT: 0.50%
[2]; 10 mg/kg i.p. + taurocholate
  AMYLASE IN THE SERUM: 8.9 U/ml
  INHIBITION OF AMYLASE INCREASE: 71.8%
  INHIBITION OF WEIGHT INCREASE: 63.0%
  RATIO WEIGHT OF PANCREAS / ANIMAL WEIGHT: 0.45%
[2]; 20 mg/kg i.p. + taurocholate
  AMYLASE IN THE SERUM: 7.7 U/ml
  INHIBITION OF AMYLASE INCREASE: 102.6%
  INHIBITION OF WEIGHT INCREASE: 74.1%
  RATIO WEIGHT OF PANCREAS / ANIMAL WEIGHT: 0.42%
[2]; read-out: ED50, inhibition of amylase increase
  ED50: 8.6 mg/kg
[2]; read-out: ED50, inhibition of weight increase
  ED50: 10.1 mg/kg
guinea-pig gallbladder
  IC50: 0.1 µg/mL (≈ 0.217 µM)
guinea-pig gallbladder; vs CCK-8 10 ng/ml
  50% antagonising concentration relative to that of the specific agonist: about 10 times

## CCCCCN(CCCOCC)C(=O)C(CCC(=O)O)NC(=O)c1ccc(Cl)c(Cl)c1 (centres unmarked) [Compound 3]
Guinea pig gall bladders
  ED50: 0.75 mg/kg
Digestive tract
  ED50: 25 mg/kg
In vivo
  LD50: 298 mg/kg
  selectivity ratio: 397
guinea-pig gallbladder
  IC50: 0.6 µg/mL (≈ 1.26 µM)

## CCCCCN(CCCOC(C)C)C(=O)C(CCC(=O)O)NC(=O)c1ccc(Cl)c(Cl)c1 (centres unmarked) [Compound 4]
Guinea pig gall bladders
  ED50: 5.08 mg/kg
guinea-pig gallbladder
  IC50: 3 µg/mL (≈ 6.13 µM)

## CCCCCN(CCOC)C(=O)C(CCC(=O)O)NC(=O)c1ccc(Cl)c(Cl)c1 (centres unmarked) [Compound 5]
Guinea pig gall bladders
  ED50: 0.68 mg/kg
Digestive tract
  ED50: 20.8 mg/kg
In vivo
  LD50: 485 mg/kg
  selectivity ratio: 713
guinea-pig gallbladder
  IC50: 0.8 µg/mL (≈ 1.79 µM)

## CCCCCN(CCCO)C(=O)C(CCC(=O)O)NC(=O)c1ccc(Cl)c(Cl)c1 (centres unmarked) [Compound 6]
Guinea pig gall bladders
  ED50: 8.4 mg/kg
guinea-pig gallbladder
  IC50: 0.3 µg/mL (≈ 0.671 µM)

## CCCCCN(CCCOC)C(=O)C(CCC(=O)O)NC(=O)c1ccc(C)c(C)c1 (centres unmarked) [Compound 7]
Guinea pig gall bladders
  ED50: 0.65 mg/kg
Digestive tract
  ED50: 33.9 mg/kg
In vivo
  LD50: 440 mg/kg
  selectivity ratio: 677
guinea-pig gallbladder
  IC50: 0.9 µg/mL (≈ 2.14 µM)

## CCCCCN(CCOCC)C(=O)C(CCC(=O)O)NC(=O)c1ccc(C)c(C)c1 (centres unmarked) [Compound 8]
Guinea pig gall bladders
  ED50: 2.02 mg/kg
guinea-pig gallbladder
  IC50: 1.1 µg/mL (≈ 2.62 µM)

## CCCCCN(CCCOC)C(=O)C(CCC(=O)O)NC(=O)c1ccc(C)cc1 (centres unmarked) [Compound 9]
Guinea pig gall bladders
  ED50: 3.85 mg/kg
guinea-pig gallbladder
  IC50: 4 µg/mL (≈ 9.84 µM)

## CCCCCN(CCCOC)C(=O)C(CCC(=O)O)NC(=O)c1cccc(C)c1 (centres unmarked) [Compound 10]
Guinea pig gall bladders
  ED50: 3.66 mg/kg
guinea-pig gallbladder
  IC50: 4.1 µg/mL (≈ 10.1 µM)

## CCCCCN(CCCOC)C(=O)C(CCC(=O)O)NC(=O)c1ccc(Cl)cc1 (centres unmarked) [Compound 11]
Guinea pig gall bladders
  ED50: 3.25 mg/kg
guinea-pig gallbladder
  IC50: 2.6 µg/mL (≈ 6.09 µM)
